According to US11512097B2, “Heterocyclic compounds as Delta-5 desaturase inhibitors and methods of use” (Amgen Inc., priority 2019, dated 2022):

Molecular target: T1, Delta-5-Desaturase (D5D), membrane preparations of D5D-overexpressing HEK293 6E cells (Homo sapiens, UniProt O60427)
T1 construct: expressed in transfected cells; host or cells: HEK293 6E cells (membrane preparation)
Assay: In vitro measurement of Delta-5-Desaturase inhibitory activity using DGLA-CoA and Arachidonyl-CoA mass spectrometric assays
Type: biochemical
Conditions: D5D membrane 10 μg/mL, one-hour incubation, average of at least two independent runs
Procedure: In Vitro Measurement of Delta-5-Desaturase Inhibitory Activity Using DGLA-CoA and Arachidonyl-CoA Mass Spectrometric Assays Membrane preparations of D5D-overexpressing HEK293 6E cells were prepared in which the total protein concentration was 5.6 mg/mL. Stock D5D membrane preparations were diluted in D5D assay buffer (25 mM 2-amino-2-(hydroxymethyl)-1,3-propanediol, pH 7.5 containing 10 mM MgCl2, 1 mM octyl glucoside (SigmaAldrich O-8001), 1 mM tris(2-carboxyethyl)phosphine hydrochloride (SigmaAldrich 646547)) to a final D5D membrane concentration of 10 μg/mL in an assay plate containing serially diluted test compounds. To 15 μL of this D5D preparation was added 15 μL of a substrate solution (0.25 mM NADH (nicotinamide adenine dinucleotide, Roche Diag. 10107735001), 0.25 mM adenosine triphosphate (SigmaAldrich A-3377), 0.05 mM coenzyme A hydrate (SigmaAldrich C-4282), and 0.01 mM DGLA (dihomo-g-linolenic acid, Sigma E-4504) in the same D5D assay buffer. After one-hour incubation at ambient temperature acetonitrile (30 μL) was added to quench the reaction and plates were centrifuged for 10 min @ 3,000 rpm. Mass spectrometric analysis involved a Rapidfire 360 SPE system coupled to an ABSciex API4000 Triple Quadrupole mass spectrometer using a C18 SPE cartridge (G9203-80105) with ionization in negative mode (solvent A=100% water; solvent B=100% acetonitrile, each solvent containing 5 mM ammonium acetate). DGLA-CoA and Arachidonyl-CoA were detected by multiple reaction monitoring (MRM) of the doubly charged parent ions at m/z 526.6 and 525.6, respectively. […] Sx is value from unknown sample, So is value from DMSO alone and Sc is value from no enzyme well. For CRC analysis, the % of inhibitions were analysed with 4 Parameter Logistic Model or Sigmoidal Dose-Response Model using XLfit (IDBS, Guilford, UK). The potency of the test item was expressed as IC50 nM, corresponding to the test item concentration able to inhibit the 50% of the enzyme maximal response. IC50 values were averaged values determined by at least two independent runs. The results presented in Table 15 have been generated with the in vitro assay described above. This assay may be used to test any of the compounds described herein to assess and characterize a compound's ability to inhibit D5D.

T1 sequence (O60427 whole entry, species assumed): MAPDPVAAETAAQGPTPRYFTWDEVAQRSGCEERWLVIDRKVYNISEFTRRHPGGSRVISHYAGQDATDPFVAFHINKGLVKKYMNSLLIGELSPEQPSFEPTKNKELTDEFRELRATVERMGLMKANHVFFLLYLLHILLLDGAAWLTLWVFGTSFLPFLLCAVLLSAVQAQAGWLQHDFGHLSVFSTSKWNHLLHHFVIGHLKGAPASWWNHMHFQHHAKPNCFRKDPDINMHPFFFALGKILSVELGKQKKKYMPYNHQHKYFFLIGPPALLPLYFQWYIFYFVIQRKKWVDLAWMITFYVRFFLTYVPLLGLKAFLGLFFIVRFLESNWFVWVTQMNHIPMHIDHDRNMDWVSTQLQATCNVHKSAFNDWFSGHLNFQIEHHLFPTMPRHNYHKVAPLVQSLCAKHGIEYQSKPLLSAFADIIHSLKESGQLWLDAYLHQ

| Structure (SMILES) | IC50 [µM] |
| --- | --- |
| COCc1cn2c(=O)c(-c3cnn(CC(F)(F)C(F)(F)F)c3)c(C(F)(F)F)nc2n1C [Example 55, 2-(methoxymethyl)-1-methyl-6-[1-(2,2,3,3,3-pentafluoropropyl)-1H-pyrazol-4-yl]-7-(trifluoromethyl)-1H,5H-imidazo[1,2-a]pyrimidin-5-one] | 0.21 |
| COCCn1c(C)cn2c(=O)c(-c3cnn(CC(F)(F)C(F)(F)F)c3)c(C(F)(F)F)nc12 [Example 57, 1-(2-methoxyethyl)-2-methyl-6-[1-(2,2,3,3,3-pentafluoropropyl)-1H-pyrazol-4-yl]-7-(trifluoromethyl)-1H,5H-imidazo[1,2-a]pyrimidin-5-one] | 0.146 |
| Cc1cn2c(=O)c(-c3cnn(CC4CC4)c3)c(C(F)(F)F)nc2n1C [Example 61, 6-[1-(cyclopropylmethyl)-1H-pyrazol-4-yl]-1,2-dimethyl-7-(trifluoromethyl)-1H,5H-imidazo[1,2-a]pyrimidin-5-one] | 0.0737 |
| COCc1cn2c(=O)c(-c3cnn(CCC(F)(F)F)c3)c(C(F)(F)F)nc2n1C [Example 63, 2-(methoxymethyl)-1-methyl-7-(trifluoromethyl)-6-[1-(3,3,3-trifluoropropyl)-1H-pyrazol-4-yl]-1H,5H-imidazo[1,2-a]pyrimidin-5-one] | 0.16 |
| Cc1cn2c(=O)c(-c3cnn(CC(F)(F)C(F)(F)F)c3)c(C(F)(F)F)nc2n1CC(C)O (centres unmarked) [Example 64, 1-(2-hydroxypropyl)-2-methyl-6-[1-(2,2,3,3,3-pentafluoropropyl)-1H-pyrazol-4-yl]-7-(trifluoromethyl)-1H,5H-imidazo[1,2-a]pyrimidin-5-one] | 0.239 |
| Cc1cn2c(=O)c(-c3cnn(CC4COC4)c3)c(C(F)(F)F)nc2n1C [Example 65, 1,2-dimethyl-6-{1-[(oxetan-3-yl)methyl]-1H-pyrazol-4-yl}-7-(trifluoromethyl)-1H,5H-imidazo[1,2-a]pyrimidin-5-one] | 0.815 |
| Cc1cn2c(=O)c(-c3cnn(CCC(F)(F)F)c3)c(C(F)(F)F)nc2n1CCN(C)C [Example 67, 1-[2-(dimethylamino)ethyl]-2-methyl-7-(trifluoromethyl)-6-[1-(3,3,3-trifluoropropyl)-1H-pyrazol-4-yl]-1H,5H-imidazo[1,2-a]pyrimidin-5-one] | 1.48 |
| Cc1cn2c(=O)c(-c3ccc(OCC(F)(F)F)cc3)c(C(F)(F)F)nc2n1CC1CC1 [Example 68, 1-(cyclopropylmethyl)-2-methyl-6-[4-(2,2,2-trifluoroethoxy)phenyl]-7-(trifluoromethyl)-1H,5H-imidazo[1,2-a]pyrimidin-5-one] | 0.356 |
| Cc1cn2c(=O)c(-c3ccc(OCC(F)(F)F)cc3)c(C(F)(F)F)nc2n1CCN(C)C [Example 69, 1-[2-(dimethylamino)ethyl]-2-methyl-6-[4-(2,2,2-trifluoroethoxy)phenyl]-7-(trifluoromethyl)-1H,5H-imidazo[1,2-a]pyrimidin-5-one] | 13.5 |
| Cc1cn2c(=O)c(-c3ccn(CC(F)(F)C(F)(F)F)n3)c(C(F)(F)F)nc2n1C [Example 70, 1,2-dimethyl-6-[1-(2,2,3,3,3-pentafluoropropyl)-1H-pyrazol-3-yl]-7-(trifluoromethyl)-1H,5H-imidazo[1,2-a]pyrimidin-5-one] | 5.15 |
| COc1cn2c(=O)c(-c3cnn(CCC(F)(F)F)c3)c(C(F)(F)F)nc2n1C [Example 72, 2-methoxy-1-methyl-7-(trifluoromethyl)-6-[1-(3,3,3-trifluoropropyl)-1H-pyrazol-4-yl]-1H,5H-imidazo[1,2-a]pyrimidin-5-one] | 0.135 |

Now those with a lower IC50, led by results:

| IC50 [µM] | Structure (SMILES) |
| --- | --- |
| 0.0578 | Cc1cn2c(=O)c(-c3cnn(CC4CC(F)(F)C4)c3)c(C(F)(F)F)nc2n1C [Example 60, 6-{1-[(3,3-difluorocyclobutyl)methyl]-1H-pyrazol-4-yl}-1,2-dimethyl-7-(trifluoromethyl)-1H,5H-imidazo[1,2-a]pyrimidin-5-one] |
| 0.0357 | Cc1cn2c(=O)c(-c3cnn(CC(F)(F)C(F)(F)F)c3)c(C(F)(F)F)nc2[nH]1 [Example 73, 2-methyl-6-[1-(2,2,3,3,3-pentafluoropropyl)-1H-pyrazol-4-yl]-7-(trifluoromethyl)-1H,5H-imidazo[1,2-a]pyrimidin-5-one] |
| 0.0343 | CCn1c(C)cn2c(=O)c(-c3cnn(CC(F)(F)C(F)(F)F)c3)c(C(F)(F)F)nc12 [Example 56, 1-ethyl-2-methyl-6-[1-(2,2,3,3,3-pentafluoropropyl)-1H-pyrazol-4-yl]-7-(trifluoromethyl)-1H,5H-imidazo[1,2-a]pyrimidin-5-one] |
| 0.0328 | COc1cn2c(=O)c(-c3cnn(CC(F)(F)C(F)(F)F)c3)c(C(F)(F)F)nc2n1C [Example 71, 2-methoxy-1-methyl-6-[1-(2,2,3,3,3-pentafluoropropyl)-1H-pyrazol-4-yl]-7-(trifluoromethyl)-1H,5H-imidazo[1,2-a]pyrimidin-5-one] |
| 0.0315 | Cc1cn2c(=O)c(-c3cnn(CC(F)(F)C(F)(F)F)c3)c(C(F)(F)F)nc2n1C(C)C [Example 58, 2-methyl-6-[1-(2,2,3,3,3-pentafluoropropyl)-1H-pyrazol-4-yl]-1-(propan-2-yl)-7-(trifluoromethyl)-1H,5H-imidazo[1,2-a]pyrimidin-5-one] |
| 0.028 | [2H]C([2H])([2H])n1c(C)cn2c(=O)c(-c3cnn(CCC(F)(F)F)c3)c(C(F)(F)F)nc12 [Example 78, 1-(^2H3)methyl-2-methyl-7-(trifluoromethyl)-6-[1-(3,3,3-trifluoropropyl)-1H-pyrazol-4-yl]-1H,5H-imidazo[1,2-a]pyrimidin-5-one] |
| 0.024 | [2H]C([2H])([2H])n1c(C)cn2c(=O)c(-c3cnn(CC(F)(F)C(F)(F)F)c3)c(C(F)(F)F)nc12 [Example 77, 1-(2H3)methyl-2-methyl-6-[1-(2,2,3,3,3-pentafluoropropyl)-1H-pyrazol-4-yl]-7-(trifluoromethyl)-1H,5H-imidazo[1,2-a]pyrimidin-5-one] |
| 0.0171 | Cc1cn2c(=O)c(-c3ccc(OCC(F)(F)F)cc3)c(C(F)(F)F)nc2n1C [Example 54, 1,2-dimethyl-6-[4-(2,2,2-trifluoroethoxy)phenyl]-7-(trifluoromethyl)-1H,5H-imidazo[1,2-a]pyrimidin-5-one] |
| 0.0117 | Cc1cn2c(=O)c(-c3cnn(CC(F)(F)C(F)(F)F)c3)c(C(F)(F)F)nc2n1CCO [Example 79, 1-(2-hydroxyethyl)-2-methyl-6-[1-(2,2,3,3,3-pentafluoropropyl)-1H-pyrazol-4-yl]-7-(trifluoromethyl)-1H,5H-imidazo[1,2-a]pyrimidin-5-one] |
| 0.011 | Cc1cn2c(=O)c(-c3cnn(CC4CC4(F)F)c3)c(C(F)(F)F)nc2n1C (centres unmarked) [Example 59, 6-{1-[(2,2-difluorocyclopropyl)methyl]-1H-pyrazol-4-yl}-1,2-dimethyl-7-(trifluoromethyl)-1H,5H-imidazo[1,2-a]pyrimidin-5-one] |
| 0.0066 | Cc1cn2c(=O)c(-c3cnn(CCC(F)(F)F)c3)c(C(F)(F)F)nc2n1CC1CC1 [Example 66, 1-(cyclopropylmethyl)-2-methyl-7-(trifluoromethyl)-6-[1-(3,3,3-trifluoropropyl)-1H-pyrazol-4-yl]-1H,5H-imidazo[1,2-a]pyrimidin-5-one] |
| 0.0064 | Cc1cn2c(=O)c(-c3cnn(CCC(F)(F)F)c3)c(C(F)(F)F)nc2n1C [Example 53, 1,2-dimethyl-7-(trifluoromethyl)-6-[1-(3,3,3-trifluoropropyl)-1H-pyrazol-4-yl]-1H,5H-imidazo[1,2-a]pyrimidin-5-one] |
| 0.0063 | Cc1cn2c(=O)c(-c3ccc(OCC(F)(F)F)cc3)c(C(F)(F)F)nc2[nH]1 [Example 75, 2-methyl-6-[4-(2,2,2-trifluoroethoxy)phenyl]-7-(trifluoromethyl)-1H,5H-imidazo[1,2-a]pyrimidin-5-one] |
| 0.0047 | Cc1cn2c(=O)c(-c3cnn(CCC(F)(F)F)c3)c(C(F)(F)F)nc2[nH]1 [Example 74, 2-methyl-7-(trifluoromethyl)-6-[1-(3,3,3-trifluoropropyl)-1H-pyrazol-4-yl]-1H,5H-imidazo[1,2-a]pyrimidin-5-one] |
| 0.0029 | Cc1cn2c(=O)c(-c3cnn(CC(F)(F)C(F)(F)F)c3)c(C(F)(F)F)nc2n1CC1CC1 [Example 62, 1-(cyclopropylmethyl)-2-methyl-6-[1-(2,2,3,3,3-pentafluoropropyl)-1H-pyrazol-4-yl]-7-(trifluoromethyl)-1H,5H-imidazo[1,2-a]pyrimidin-5-one] |
